pIC50: −log10 of the molar value.

This is an account of results in patent US20220227758A1, “IMIDAZOPYRIDINE COMPOUND AS IRAK4 INHIBITOR” (MEDSHINE DISCOVERY INC., priority 2019, published 2022).

Data set [1] has as its target T1, human IRAK4 (Homo sapiens, UniProt Q9NWZ3).
T1 construct: purchased Reaction Biology Corp
T1 sequence (Q9NWZ3 1-460): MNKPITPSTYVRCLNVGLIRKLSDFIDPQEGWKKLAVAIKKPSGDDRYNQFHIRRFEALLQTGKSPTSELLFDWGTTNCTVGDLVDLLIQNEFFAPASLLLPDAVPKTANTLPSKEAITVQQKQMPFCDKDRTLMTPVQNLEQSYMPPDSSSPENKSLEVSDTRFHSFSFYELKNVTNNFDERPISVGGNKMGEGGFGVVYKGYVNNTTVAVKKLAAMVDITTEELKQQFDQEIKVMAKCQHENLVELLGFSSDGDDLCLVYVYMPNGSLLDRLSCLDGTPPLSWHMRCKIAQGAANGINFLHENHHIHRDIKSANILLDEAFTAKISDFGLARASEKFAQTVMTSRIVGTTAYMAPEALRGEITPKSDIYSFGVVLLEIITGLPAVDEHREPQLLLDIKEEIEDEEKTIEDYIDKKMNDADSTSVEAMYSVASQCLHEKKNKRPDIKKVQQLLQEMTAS
Nature of the data set: 33P-labeled kinase activity assay (in vitro enzymatic activity evaluation). In kind it is biochemical. As to the method:
The inhibitory activity of the test compounds against human IRAK4 was evaluated by determining IC50 values in a ^33P-labeled kinase activity assay (Reaction Biology Corp).
Buffer conditions: 20 mM Hepes (pH 7.5), 10 mM MgCl2, 1 mM EGTA, 0.02% Brij35, 0.02 mg/mL BSA, 0.1 mM Na3VO4, 2 mM DTT, 1% DMSO.
Procedures: The test compound was dissolved in DMSO at room temperature to prepare a 10 mM solution for later use. The substrates were dissolved in freshly formulated buffers. The kinase was added, and mixture was stirred homogeneously. The DMSO solution containing the test compound was added to the above mixed reaction system by an acoustic technique (Echo 550). After 15 minutes of incubation, the reaction was started by adding ^33P-ATP. After 120 minutes of reaction at room temperature, the resulting solution was loaded on P81 ion exchange chromatography paper sheet (Whatman #3698-915). After repeated washings with 0.75% phosphoric acid solution, the radioactivity of the phosphorylated substrate residue on the paper sheet was measured. The kinase activity data are shown as a comparison of the kinase activity of the test compound and the kinase activity of the blank (DMSO only) and a curve was fitted using Prism4 software (GraphPad) to give IC50 values, with the experimental results shown in Table 5.

In data set [2] the test system is THP-1 cells. Nature of the data set: cells. Particulars: Homo sapiens, THP-1, 18 h, read-out: THP-1/IC50. As to the method: TNF-α ELISA in THP-1 cells
THP-1 human acute […] leukemia cells were purchased from ATCC (Cat # TIB-202) and incubated in a5% CO2 incubator at 37° C. The medium was RPMI1640 (Gibco, Cat # 22400-105), the supplementary was 10% FBS (Gibco, Cat # 10091148); 1% PenStrep (Gibco, Cat # 15140); 0.05 mM 2-mercaptoethanol (Sigma, Cat # M6250).
TNF-α content in the cell culture supernatant was measured by a TNF-α Elisa kit. TNF-α was produced by stimulation of THP-1 cells with 150 ng/mL LPS (Sigma, Cat # L6529). Normal THP-1 cells in logarithmic phase were seeded in 96-well plates (Corning #3599) at a certain concentration (1×10^5/100 μL) and then incubated in an incubator. After two hours, 16.7 μL of test compound of different concentrations (8×final concentration) was added and the mixture was incubated in the incubator. After one hour, 16.7 μL of 1200 ng/mL LPS was added and the mixture was incubated in the incubator. After 18 h, the culture was centrifuged and the probe of the supernatant was collected. The TNF-α content was measured by a TNF-α Elisa kit. Finally, the OD signals (OD450-OD570) were read on an envision plate reader.
The OD450-OD570 signals were converted to percent inhibition.
Inhibition%=(ZPE−sample)/(ZPE−HPE)×100.
“HPE” represents the OD450-OD570 signal value of the control well without LPS-stimulated cells, and “ZPE” represents the OD450-OD570 signal value of the control well with LPS-stimulated cells.
IC50 values for compounds were calculated by XLFit in the Excel.
Equation:y=Bottom+(Top-Bottom)/(1+(IC50/X)^ HillSlope).

The subject of data set [3] is lipopolysaccharide (LPS)-induced TNF-α secretion. Briefly: Pharmacodynamic study of LPS-induced TNF-α secretion in SD rats. In kind it is in vivo. The conditions noted are these: oral. As to the method:
SD rats were orally administered with a solvent, dexamethasone (DEX, 0.5 mg/kg) as positive control, and the test compound, and were intraperitoneally injected with LPS (1 mg/kg) 0.5 hours after the administration. Animals were euthanized with CO2 2 h after LPS injection. Cardiac blood was collected into EDTA-K2 vacutainers, and a part of the anticoagulated blood was centrifuged and the plasma was frozen at −80° C.
Frozen plasma was thawed at room temperature and the concentration of TNF-α in the plasma was measured using ELISA kit.
The experimental data were expressed using mean±SEM, and TNF-α levels were analyzed by One-way ANOVA. Significant differences were considered for p<0.05.

Data set [4] concerns human B-cell lymphoma OCI-LY10 cells subcutaneous xenograft tumor. Briefly: In vivo pharmacodynamic study in OCI-LY10 subcutaneous xenograft tumor mouse model. Particulars: WX005 50 mpk, ibrutinib 10 mpk; for T/C value / TGI value: day 18 after start of administration, WX005 + ibrutinib 50+10 mpk. As to the method: The purpose of this experiment was to evaluate the efficacy of test drug WX005 on human B-cell lymphoma OCI-LY10 cell subcutaneous xenograft tumors in a CB17 SCID mouse model in vivo.
OCI-LY10 human B cell lymphoma cells, cultured in a 5% CO2 incubator at 37° C.
OCI-LY10 tumor cells were subcultured. 0.2 mL (1×10^7 cells) of OCI-LY10 cells (along with matrigel in a volume ratio of 1:1) was subcutaneously inoculated on the right back of each […], and the mice were administered in groups when the average tumor volume was 167 mm^3. Animals were monitored daily for health and death, and routine examinations include observation of the effect of tumor growth and drug treatment on the daily performance of the animals, such as behavioral activities, food and water intake, weight changes (twice weekly), tumor size (twice weekly for tumor volume), appearance signs, or other abnormal conditions.
The experimental indices were to investigate whether tumor growth was inhibited or delayed or the tumor was cured. The procedures comprised measuring tumor volume (TV), and calculating the tumor inhibiting therapeutic effect TGI (%) or relative tumor proliferation rate T/C (%) of the compound. TV=0.5a×b^2, where a and b represent the long diameter and short diameter of the tumor, respectively.
T/C%=TRTV/CRTV×100% (TRTV: RTV of treatment group; CRTV: RTV of negative control group). Relative tumor volume (RTV) was calculated based on the results of tumor measurement. The calculation formula was: RTV=Vt/V0, wherein Vo was the average tumor volume measured at the time of grouping and administration (i.e., d0), Vt was the average tumor volume at a certain measurement, and the data of TRTV and CRTV were obtained on the same day.

Data set [5] relates to collagen-induced arthritis. Briefly: In vivo efficacy assay of collagen-induced mouse arthritis. On the set-up: species or system DBA/1 mice. The conditions noted are these: 100 mg/kg twice daily for 14 days, oral gavage. As to the method: The purpose of this experiment was to investigate the therapeutic effect of compound WX005 in a mouse model of collagen-induced arthritis.
Animals: male DBA/1 mice aged 6-8 weeks; supplier: Vital River.
Grouping: Among 39 DBA/1 mice, 5 mice were randomly selected as normal controls, and the other 34 were immunized. The day of the first immunization was recorded as Day 0. During modeling, DBA/1 mice were anesthetized with isoflurane and sensitized by injecting 50 microliters of prepared collagen emulsion (containing 200 micrograms of CII) subcutaneously on the tail (2-3 cm from the root of the tail). On Day 23, 100 microliters of 0.3 mg/mL LPS solution (containing 30 micrograms of LPS) was intraperitoneally injected. Mice in the normal group were not immunized.
On Day 26, when the average clinical score reached about 0.8, 24 mice with clinical scores of 0-1 were selected, and the mice were randomly grouped into 3 treatment groups of 8 according to the body weight and the score. […]
Clinical observation: the general health and body weight changes of DBA/1 mice were observed daily from 7 days before immunization to Day 23 after immunization (recorded once weekly). After Day 23, mice were observed daily for health, morbidity, and weight changes (recorded at least three times a week) until the end of assay. […]

`CC(C)(O)CCc1cn2cc(NC(=O)c3cccc(C(F)(F)F)n3)c(N3CCOCC3)cc2n1` [WX001]: the pIC50 in data set [1] was 8.66.

`CC(C)(O)CCc1cn2cc(NC(=O)c3cccc(C(F)(F)F)n3)c(C(C)(C)O)cc2n1` [WX002]: the pIC50 in data set [1] is 9.40; in data set [2], 7.27.

Compound `CC(C)(O)CCc1cn2cc(NC(=O)c3cccc(C(F)(F)F)n3)c(N3CCCCC3)cc2n1` [WX003] gave a pIC50 in data set [1] of 8.92.

In turn, `CC(=O)N1CCN(c2cc3nc(CCC(C)(C)O)cn3cc2NC(=O)c2cccc(C(F)(F)F)n2)CC1` [WX004] had a pIC50 in data set [1] of 8.34.

Turning to `CC(C)(O)CCc1cn2cc(NC(=O)c3cccc(C(F)(F)F)n3)c(N3CCC(O)CC3)cc2n1` [WX005], in data set [1], the pIC50 was 8.89. In data set [2], the pIC50 was 6.94. Moreover, the “inhibitory effect on LPS-induced TNF-α secretion (plasma TNF-α)” value in data set [3] (LPS 1 mg/kg i.p. 0.5 h after administration, plasma 2 h after LPS) is on record as “significant inhibitory effect”. In data set [3] (WX005 30 mpk vs dexamethasone (DEX) 0.5 mpk), the “potency on LPS-induced TNF-α secretion compared with dexamethasone” value is “potency equivalent to that of dexamethasone”. Further, the “dose-response of inhibition of LPS-induced TNF-α secretion” value in data set [3] (doses 3 mpk, 10 mpk, 30 mpk) was “clear dose-response relationship”. Moreover, the “tolerability (body weight, abnormality) in tumor-bearing mice” value in data set [4] (18 days of treatment) is recorded as “good tolerability in animals”. For the same compound, in data set [4], the T/C value turned out to be 53% and the TGI value worked out at 66%. Further, in data set [5], the “body weight of the mice” value was “increased steadily” and the “clinical score of arthritis (efficacy)” value is “excellent efficacy”.

Compound `CC(C)(O)CCc1cn2cc(NC(=O)c3cccc(C(F)(F)F)n3)c(N3CCCC(O)C3)cc2n1` (stereo not shown) [WX006] showed a pIC50 in data set [1] of 8.42.

`CC(C)(O)CCc1cn2cc(NC(=O)c3cccc(C(F)(F)F)n3)c(N3CCC(CO)CC3)cc2n1` [WX007] gave a pIC50 in data set [1] of 9.05.

`CC(C)(O)CCc1cn2cc(NC(=O)c3cccc(C(F)(F)F)n3)c(N3CCNCC3)cc2n1` [WX008] gave a pIC50 in data set [1] of 8.82.

Compound `COC(=O)N1CCN(c2cc3nc(CCC(C)(C)O)cn3cc2NC(=O)c2cccc(C(F)(F)F)n2)CC1` [WX010] gave a pIC50 in data set [1] of 8.34.

In data set [1], `CC(C)(O)CCc1cn2cc(NC(=O)c3cccc(C(F)(F)F)n3)c(C3CC3)cc2n1` [WX013] had a pIC50 of 8.44.

The compound `CCOc1cc2nc(CCC(C)(C)O)cn2cc1NC(=O)c1cccc(C(F)(F)F)n1` [WX014] showed a pIC50 in data set [1] of 8.77.

As for `CC(C)(O)CCc1cn2cc(NC(=O)c3cccc(C(F)(F)F)n3)c(N3CCC(C)(O)CC3)cc2n1` [WX015], the pIC50 was 9.15 in data set [1] and 6.70 in data set [2].

`CC(C)(O)CCc1cn2cc(NC(=O)c3cccc(C(F)(F)F)n3)c(N3CCC(C(N)=O)CC3)cc2n1` [WX016]: the pIC50 was 8.92 in data set [1] and 6.74 in data set [2].

For the compound `CC(C)(O)CCc1cn2cc(NC(=O)c3cccc(C(F)(F)F)n3)c(N3CCC(CN)CC3)cc2n1` [WX017], the pIC50 in data set [1] was 8.89.

The compound `CC1(O)CCN(c2cc3nc(CCC(=O)O)cn3cc2NC(=O)c2cccc(C(F)(F)F)n2)CC1` [WX018] showed a pIC50 in data set [1] of 8.01.

Consider `NC(=O)C1CCN(c2cc3nc(CCC(=O)O)cn3cc2NC(=O)c2cccc(C(F)(F)F)n2)CC1` [WX019], for which the pIC50 in data set [1] was 7.71.

Take `NCC1CCN(c2cc3nc(CCC(=O)O)cn3cc2NC(=O)c2cccc(C(F)(F)F)n2)CC1` [WX020]: the pIC50 in data set [1] was 7.69.

In turn, `O=C(O)CCc1cn2cc(NC(=O)c3cccc(C(F)(F)F)n3)c(N3CCC(CO)CC3)cc2n1` [WX021] had a pIC50 in data set [1] of 8.15.

Compound `CS(=O)(=O)CCc1cn2cc(NC(=O)c3cccc(C(F)(F)F)n3)c(N3CCC(O)CC3)cc2n1` [WX023] gave a pIC50 in data set [1] of 8.89.

As for `CC1(O)CCN(c2cc3nc(CCS(C)(=O)=O)cn3cc2NC(=O)c2cccc(C(F)(F)F)n2)CC1` [WX025], the pIC50 in data set [1] was 9.30.

For `C=CC(=O)N1CCC[C@@H](n2nc(-c3ccc(Oc4ccccc4)cc3)c3c(N)ncnc32)C1` [ibrutinib, reference compound], in data set [4], the T/C value is reported as 39% and the TGI value came out at 85%.
